Ki data for 11 molecules are collected here from patent US8710065B2, “Tricyclic inhibitors of kinases” (AbbVie Inc., priority 2011, dated 2014).

The experiment deals with T1, GST-tagged-Wee1 kinase (Homo sapiens, UniProt P30291).
T1 construct: purchased Carnabio (Carna Biosciences) 05-177
T1 sequence (P30291 whole entry): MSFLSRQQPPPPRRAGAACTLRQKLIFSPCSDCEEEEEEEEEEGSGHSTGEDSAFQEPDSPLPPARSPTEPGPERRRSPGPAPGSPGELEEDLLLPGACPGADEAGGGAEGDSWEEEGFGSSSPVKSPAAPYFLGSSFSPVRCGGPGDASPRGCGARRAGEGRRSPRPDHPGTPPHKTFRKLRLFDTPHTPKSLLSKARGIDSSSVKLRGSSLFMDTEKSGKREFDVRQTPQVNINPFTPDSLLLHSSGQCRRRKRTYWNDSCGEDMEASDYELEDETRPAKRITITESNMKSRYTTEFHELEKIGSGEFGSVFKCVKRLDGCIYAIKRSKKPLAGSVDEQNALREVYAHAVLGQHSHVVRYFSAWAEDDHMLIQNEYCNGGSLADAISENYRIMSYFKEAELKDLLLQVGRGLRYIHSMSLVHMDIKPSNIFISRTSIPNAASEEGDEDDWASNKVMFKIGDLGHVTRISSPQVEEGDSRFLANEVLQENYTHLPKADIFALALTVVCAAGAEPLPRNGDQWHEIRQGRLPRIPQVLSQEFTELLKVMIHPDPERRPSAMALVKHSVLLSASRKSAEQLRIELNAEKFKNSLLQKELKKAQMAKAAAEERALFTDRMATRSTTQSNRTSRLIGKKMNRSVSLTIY
As to the kind of experiment: Wee1 time-resolved fluorescence equilibrium binding assay (displacement of Oregon Green-labeled ATP-competitive kinase probe). The following applies: read-out: Wee-1 inhibition (Ki). In short, it runs like this: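 Ki values derive from competitive displacement, under equilibrium, of a fast-reversible ATP-site Oregon Green kinase probe from GST-tagged Wee1, detected by time-resolved fluorescence.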
In the case of `O=c1c2cnc(Nc3ccc(C4CCCCN4)cc3)nc2n2ccnc2n1-c1c(Cl)cccc1Cl` (centres unmarked) [Example 135, 6-(2,6-dichlorophenyl)-2-{[4-(piperidin-2-yl)phenyl]amino}imidazo[1,2-a]pyrimido[5,4-e]pyrimidin-5(6H)-one], the inhibitory constant (Ki) (commonly the dissociation constant of the complex between target and ligand, obtained from inhibition or displacement) is < 10 nM.

Consider `CN1CCN(c2ccc(Nc3ncc4c(=O)n(-c5c(Cl)cccc5Cl)c5nccn5c4n3)cc2Cl)CC1` [Example 136, 2-{[3-chloro-4-(4-methylpiperazin-1-yl)phenyl]amino}-6-(2,6-dichlorophenyl)imidazo[1,2-a]pyrimido[5,4-e]pyrimidin-5(6H)-one], for which the Ki is < 10 nM.

On to `COc1cc(Nc2ncc3c(=O)n(-c4c(Cl)cccc4Cl)c4nccn4c3n2)ccc1N1CCN(C(C)C)CC1` [Example 137, 6-(2,6-dichlorophenyl)-2-({3-methoxy-4-[4-(propan-2-yl)piperazin-1-yl]phenyl}amino)imidazo[1,2-a]pyrimido[5,4-e]pyrimidin-5(6H)-one], for which the Ki was < 10 nM.

`O=c1c2cnc(Nc3ccc(N4CCC(O)CC4)cc3)nc2n2ccnc2n1-c1ccccc1Cl` [Example 138, 6-(2-chlorophenyl)-2-{[4-(4-hydroxypiperidin-1-yl)phenyl]amino}imidazo[1,2-a]pyrimido[5,4-e]pyrimidin-5(6H)-one]: the Ki was < 10 nM.

`CN(C)C1Cc2ccc(Nc3ncc4c(=O)n(-c5c(F)cccc5Cl)c5nccn5c4n3)cc2C1` (centres unmarked) [Example 139, 6-(2-chloro-6-fluorophenyl)-2-{[2-(dimethylamino)-2,3-dihydro-1H-inden-5-yl]amino}imidazo[1,2-a]pyrimido[5,4-e]pyrimidin-5(6H)-one]: the Ki is < 10 nM.

As to `CN1Cc2cc(Nc3ncc4c(=O)n(-c5c(F)cccc5Cl)c5nccn5c4n3)ccc2C2(CC2)C1` [Example 140, 6-(2-chloro-6-fluorophenyl)-2-[(2′-methyl-2′,3′-dihydro-1′H-spiro[cyclopropane-1,4′-isoquinolin]-7′-yl)amino]imidazo[1,2-a]pyrimido[5,4-e]pyrimidin-5(6H)-one], the Ki was < 10 nM.

Regarding `Cc1cc(Nc2ncc3c(=O)n(-c4c(F)cccc4Cl)c4nccn4c3n2)ccc1N1CCCNCC1` [Example 141, 6-(2-chloro-6-fluorophenyl)-2-{[4-(1,4-diazepan-1-yl)-3-methylphenyl]amino}imidazo[1,2-a]pyrimido[5,4-e]pyrimidin-5(6H)-one], the Ki is < 10 nM.

As to `CC(C)n1c(=O)c2cnc(Nc3ccc4c(c3)CN(C)CC43CC3)nc2n2ccnc12` [Example 142, 2-[(2′-methyl-2′,3′-dihydro-1′H-spiro[cyclopropane-1,4′-isoquinolin]-7′-yl)amino]-6-(propan-2-yl)imidazo[1,2-a]pyrimido[5,4-e]pyrimidin-5(6H)-one], the Ki is 10 to 100 nM.

As to `O=C1CN(c2ccc(Nc3ncc4c(=O)n(-c5c(Cl)cccc5Cl)c5nccn5c4n3)cc2)CCN1` [Example 143, 6-(2,6-dichlorophenyl)-2-{[4-(3-oxopiperazin-1-yl)phenyl]amino}imidazo[1,2-a]pyrimido[5,4-e]pyrimidin-5(6H)-one], the Ki was < 10 nM.

As for `CC(C)N1Cc2cc(Nc3ncc4c(=O)n(-c5ccccc5Cl)c5nccn5c4n3)ccc2C(C)(C)C1` [Example 144, 6-(2-chlorophenyl)-2-{[4,4-dimethyl-2-(propan-2-yl)-1,2,3,4-tetrahydroisoquinolin-7-yl]amino}imidazo[1,2-a]pyrimido[5,4-e]pyrimidin-5(6H)-one], the Ki is < 10 nM.

With `CC1(C)CN(CCCC(F)(F)F)Cc2cc(Nc3ncc4c(=O)n(-c5ccccc5Cl)c5nccn5c4n3)ccc21` [Example 145, 6-(2-chlorophenyl)-2-{[4,4-dimethyl-2-(4,4,4-trifluorobutyl)-1,2,3,4-tetrahydroisoquinolin-7-yl]amino}imidazo[1,2-a]pyrimido[5,4-e]pyrimidin-5(6H)-one], the Ki is < 10 nM.
